The target in assay [1] is Dual specificity mitogen-activated protein kinase kinase 2 (Homo sapiens) (UniProt P36507). In words: Inhibition of wild-type human full length MEK2 (M1 to V400 residues) expressed in mammalian expression system assessed as residual activity at 1 uM by Kinomescan method relative to control.
Assay [2] has as its system BT-483. Kind of assay: Downregulation of Bcl2 protein expression in human BT-483 cells at 5 to 10 uM by Western blot analysis. It counts as functional, cell-based.
For assay [3], the target named is Serine/threonine-protein kinase Nek1 (Homo sapiens) (UniProt Q96PY6). In words: Inhibition of wild-type human partial length NEK1 (M1 to K278 residues) expressed in bacterial expression system assessed as residual activity at 1 uM by Kinomescan method relative to control.
For assay [4], the system named is BT-483. In words: Effect on caspase-8 protein expression in human BT-483 cells at 5 to 10 uM by Western blot analysis. The assay is classed as functional, cell-based.
Assay [5] concerns the target Serine/threonine-protein kinase TNNI3K (Homo sapiens) (UniProt Q59H18). In words: Inhibition of wild-type human full length TNNI3K (M1 to S835 residues) expressed in bacterial expression system assessed as residual activity at 1 uM by Kinomescan method relative to control.
For assay [6], the target named is Mitogen-activated protein kinase 11 (Homo sapiens) (UniProt Q15759). Kind of assay: Inhibition of wild-type human full length p38-beta (M1 to Q364 residues) expressed in bacterial expression system assessed as residual activity at 1 uM by Kinomescan method relative to control.
Assay [7] deals with BT-483. Kind of assay: Induction of apoptosis in human BT-483 cells assessed as live cells at 10 uM by Annexin V-FITC/propidium iodide staining based flow cytometry (reference value: 87.5%). It counts as functional.
Assay [8] deals with Testis-specific serine/threonine-protein kinase 1 (Homo sapiens) (UniProt Q9BXA7). In words: Inhibition of wild-type human full length TSSK1B (M1 to Q367 residues) expressed in bacterial expression system assessed as residual activity at 1 uM by Kinomescan method relative to control.
Assay [9] relates to BT-483. Kind of assay: Effect on FADD protein expression in human BT-483 cells at 5 to 10 uM by Western blot analysis. It counts as functional, cell-based. In general terms: A western blot detects proteins with antibodies after separation by electrophoresis.
Assay [10] concerns the target Serine/threonine-protein kinase PLK1 (Homo sapiens, UniProt P53350). Kind of assay: Inhibition of wild-type human partial length PLK1 (A33 to F325 residues) expressed in mammalian expression system assessed as residual activity at 1 uM by Kinomescan method relative to control.
The target of assay [11] is Atypical kinase COQ8A, mitochondrial (Homo sapiens) (UniProt Q8NI60). In words: Inhibition of wild-type human […] ADCK3 (M280 to Q647 residues) expressed in bacterial expression system assessed as residual activity at 1 uM by Kinomescan method relative to control.
Chain of Atypical kinase COQ8A, mitochondrial (Homo sapiens) (Q8NI60 163-647 limits assumed): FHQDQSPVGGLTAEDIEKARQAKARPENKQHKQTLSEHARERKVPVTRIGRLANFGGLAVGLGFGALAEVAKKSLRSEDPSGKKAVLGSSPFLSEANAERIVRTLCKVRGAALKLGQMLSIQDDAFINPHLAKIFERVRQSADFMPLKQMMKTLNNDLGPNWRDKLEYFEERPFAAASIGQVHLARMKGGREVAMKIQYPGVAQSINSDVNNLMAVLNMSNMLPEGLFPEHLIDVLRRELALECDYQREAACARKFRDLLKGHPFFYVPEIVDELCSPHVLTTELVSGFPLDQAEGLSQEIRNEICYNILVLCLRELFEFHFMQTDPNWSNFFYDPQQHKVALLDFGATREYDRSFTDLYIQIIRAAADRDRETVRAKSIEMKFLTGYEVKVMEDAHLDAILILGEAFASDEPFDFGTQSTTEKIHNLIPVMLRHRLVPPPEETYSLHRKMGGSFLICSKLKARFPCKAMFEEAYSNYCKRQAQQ
Assay [12] deals with Serine/threonine-protein kinase DCLK1 (Homo sapiens) (UniProt O15075). In words: Inhibition of wild-type human partial length DCAMKL1 (L270 to A662 residues) expressed in mammalian expression system assessed as residual activity at 1 uM by Kinomescan method relative to control.
Chain of Serine/threonine-protein kinase DCLK1 (Homo sapiens) (O15075 whole entry, the tested form may be a part): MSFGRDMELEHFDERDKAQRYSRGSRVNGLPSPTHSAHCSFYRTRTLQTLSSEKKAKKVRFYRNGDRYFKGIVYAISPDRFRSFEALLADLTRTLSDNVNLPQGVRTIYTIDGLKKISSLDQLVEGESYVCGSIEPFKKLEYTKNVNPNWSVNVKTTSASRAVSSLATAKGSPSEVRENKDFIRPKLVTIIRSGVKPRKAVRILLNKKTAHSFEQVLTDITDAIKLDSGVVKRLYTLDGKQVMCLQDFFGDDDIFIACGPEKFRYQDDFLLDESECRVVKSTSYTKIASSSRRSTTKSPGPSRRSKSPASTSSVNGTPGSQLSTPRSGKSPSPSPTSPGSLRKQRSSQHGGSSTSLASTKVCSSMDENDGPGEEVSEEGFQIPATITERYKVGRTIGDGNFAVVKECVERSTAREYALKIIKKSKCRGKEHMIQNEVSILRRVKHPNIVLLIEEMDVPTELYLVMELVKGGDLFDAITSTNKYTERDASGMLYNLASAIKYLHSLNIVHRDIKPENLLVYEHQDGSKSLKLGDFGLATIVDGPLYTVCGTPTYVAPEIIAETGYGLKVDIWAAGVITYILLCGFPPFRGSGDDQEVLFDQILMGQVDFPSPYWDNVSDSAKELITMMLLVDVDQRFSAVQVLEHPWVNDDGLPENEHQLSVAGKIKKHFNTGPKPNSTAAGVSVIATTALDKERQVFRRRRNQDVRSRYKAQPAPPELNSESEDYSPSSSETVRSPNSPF
The target in assay [13] is Tyrosine-protein kinase ABL1 (Homo sapiens) (UniProt P00519). In words: Inhibition of wild-type human phosphorylated ABL1 (S229 to K512 residues) expressed in mammalian expression system assessed as residual activity at 1 uM by Kinomescan method relative to control.
Chain of Tyrosine-protein kinase ABL1 (Homo sapiens) (P00519 whole entry, the tested form may be a part): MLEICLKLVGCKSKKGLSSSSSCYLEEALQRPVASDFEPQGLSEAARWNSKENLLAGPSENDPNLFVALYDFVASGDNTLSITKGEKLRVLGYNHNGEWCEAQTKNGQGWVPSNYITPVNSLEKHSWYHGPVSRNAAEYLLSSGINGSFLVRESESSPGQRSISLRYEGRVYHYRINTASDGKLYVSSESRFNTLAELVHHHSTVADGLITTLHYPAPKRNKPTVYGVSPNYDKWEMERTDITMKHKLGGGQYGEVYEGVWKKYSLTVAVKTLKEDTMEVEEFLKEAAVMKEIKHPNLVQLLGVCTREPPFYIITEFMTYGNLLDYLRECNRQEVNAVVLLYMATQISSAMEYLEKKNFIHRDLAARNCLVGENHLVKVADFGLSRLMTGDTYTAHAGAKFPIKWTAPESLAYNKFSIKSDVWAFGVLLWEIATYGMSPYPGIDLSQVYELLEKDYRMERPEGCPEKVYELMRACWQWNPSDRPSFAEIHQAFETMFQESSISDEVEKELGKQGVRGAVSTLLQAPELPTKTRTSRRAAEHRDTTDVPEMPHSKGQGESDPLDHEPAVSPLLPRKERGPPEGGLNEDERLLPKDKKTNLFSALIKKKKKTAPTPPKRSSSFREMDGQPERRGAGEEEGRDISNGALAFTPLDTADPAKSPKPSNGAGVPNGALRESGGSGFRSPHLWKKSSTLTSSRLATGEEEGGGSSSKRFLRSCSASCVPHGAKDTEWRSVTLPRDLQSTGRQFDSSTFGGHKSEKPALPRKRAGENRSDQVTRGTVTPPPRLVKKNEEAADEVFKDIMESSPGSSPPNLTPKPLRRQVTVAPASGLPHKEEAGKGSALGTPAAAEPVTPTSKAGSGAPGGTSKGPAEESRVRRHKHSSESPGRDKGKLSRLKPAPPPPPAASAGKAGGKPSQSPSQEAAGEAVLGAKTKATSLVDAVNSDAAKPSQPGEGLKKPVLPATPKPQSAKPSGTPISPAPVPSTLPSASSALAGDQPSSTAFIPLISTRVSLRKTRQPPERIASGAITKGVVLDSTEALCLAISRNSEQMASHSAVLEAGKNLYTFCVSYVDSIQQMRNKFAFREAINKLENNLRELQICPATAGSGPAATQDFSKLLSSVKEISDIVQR
Assay [14] addresses Serine/threonine-protein kinase STK11 (Homo sapiens) (UniProt Q15831). In words: Inhibition of wild-type human full length LKB1 (M1 to Q433 residues) expressed in bacterial expression system assessed as residual activity at 1 uM by Kinomescan method relative to control.
Assay [15] concerns the target Focal adhesion kinase 1 (Homo sapiens) (UniProt Q05397). Kind of assay: Inhibition of wild-type human partial length FAK (D402 to R696 residues) expressed in bacterial expression system assessed as residual activity at 1 uM by Kinomescan method relative to control.
Assay [16] concerns the target NUAK family SNF1-like kinase 2 (Homo sapiens) (UniProt Q9H093). Kind of assay: Inhibition of wild-type human partial length SNARK (P22 to A333 residues) expressed in mammalian expression system assessed as residual activity at 1 uM by Kinomescan method relative to control.
The test system of assay [17] is BT-483. Kind of assay: Induction of autophagy in human BT-483 cells assessed as activation of LC3 at 5 to 10 uM by Western blot analysis. It counts as functional, cell-based.
The target in assay [18] is Tyrosine-protein kinase JAK2 (Homo sapiens) (UniProt O60674). In words: Inhibition of wild-type human partial length JAK2 JH1 catalytic domain (A829 to G1132 residues) expressed in mammalian expression system assessed as residual activity at 1 uM by Kinomescan method relative to control.
Chain of Tyrosine-protein kinase JAK2 (Homo sapiens) (O60674 whole entry, the tested form may be a part): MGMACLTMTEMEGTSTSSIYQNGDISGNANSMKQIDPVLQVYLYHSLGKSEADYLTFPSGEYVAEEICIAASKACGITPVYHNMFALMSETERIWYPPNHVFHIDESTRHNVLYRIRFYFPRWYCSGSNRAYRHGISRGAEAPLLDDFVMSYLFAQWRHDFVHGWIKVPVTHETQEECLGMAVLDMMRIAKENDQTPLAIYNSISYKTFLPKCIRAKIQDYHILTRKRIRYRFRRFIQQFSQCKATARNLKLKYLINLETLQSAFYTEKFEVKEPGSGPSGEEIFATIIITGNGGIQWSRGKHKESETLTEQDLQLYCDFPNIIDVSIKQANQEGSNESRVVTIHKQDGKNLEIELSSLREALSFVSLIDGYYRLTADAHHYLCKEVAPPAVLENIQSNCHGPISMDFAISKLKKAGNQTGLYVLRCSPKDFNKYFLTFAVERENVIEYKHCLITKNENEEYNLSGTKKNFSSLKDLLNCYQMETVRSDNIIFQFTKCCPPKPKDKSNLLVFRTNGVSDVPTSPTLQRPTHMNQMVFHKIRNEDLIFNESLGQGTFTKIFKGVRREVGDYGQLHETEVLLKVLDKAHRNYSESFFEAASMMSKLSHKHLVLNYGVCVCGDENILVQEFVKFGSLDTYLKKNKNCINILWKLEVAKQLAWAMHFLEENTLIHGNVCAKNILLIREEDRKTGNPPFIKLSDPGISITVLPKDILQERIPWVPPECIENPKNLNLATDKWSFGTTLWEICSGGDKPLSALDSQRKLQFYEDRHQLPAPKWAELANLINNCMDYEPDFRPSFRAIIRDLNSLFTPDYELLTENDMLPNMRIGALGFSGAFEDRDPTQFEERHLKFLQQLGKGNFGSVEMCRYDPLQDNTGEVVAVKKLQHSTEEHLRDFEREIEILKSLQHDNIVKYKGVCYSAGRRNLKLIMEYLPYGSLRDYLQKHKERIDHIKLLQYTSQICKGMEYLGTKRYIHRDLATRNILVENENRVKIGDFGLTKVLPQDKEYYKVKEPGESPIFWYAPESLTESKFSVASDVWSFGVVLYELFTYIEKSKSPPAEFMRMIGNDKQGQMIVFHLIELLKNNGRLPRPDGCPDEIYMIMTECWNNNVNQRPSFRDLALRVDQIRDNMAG
The target of assay [19] is T1, Eukaryotic elongation factor 2 kinase (Homo sapiens) (UniProt O00418).
T1 sequence (whole entry): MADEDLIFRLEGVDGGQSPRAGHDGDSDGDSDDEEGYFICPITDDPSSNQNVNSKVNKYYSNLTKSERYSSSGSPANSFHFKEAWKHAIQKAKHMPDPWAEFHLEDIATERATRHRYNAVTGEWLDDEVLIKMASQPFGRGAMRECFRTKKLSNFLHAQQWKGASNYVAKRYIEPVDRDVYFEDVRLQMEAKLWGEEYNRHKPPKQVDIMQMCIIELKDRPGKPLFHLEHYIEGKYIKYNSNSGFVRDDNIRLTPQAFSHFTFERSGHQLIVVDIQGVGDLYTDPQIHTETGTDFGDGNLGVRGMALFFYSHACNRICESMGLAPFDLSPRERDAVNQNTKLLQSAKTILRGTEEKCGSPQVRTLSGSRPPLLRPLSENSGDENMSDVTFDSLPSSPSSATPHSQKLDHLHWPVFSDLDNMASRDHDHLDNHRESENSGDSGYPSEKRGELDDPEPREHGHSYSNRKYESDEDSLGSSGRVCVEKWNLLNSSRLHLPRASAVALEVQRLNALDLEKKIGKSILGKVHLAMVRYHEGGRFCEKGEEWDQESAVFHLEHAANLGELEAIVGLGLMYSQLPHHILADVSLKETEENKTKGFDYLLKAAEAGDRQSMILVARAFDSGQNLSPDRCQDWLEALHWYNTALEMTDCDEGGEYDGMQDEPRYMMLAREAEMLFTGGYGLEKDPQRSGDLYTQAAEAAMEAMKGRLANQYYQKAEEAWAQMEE
Kind of assay: Inhibition of EEF2K (unknown origin) assessed as residual activity at 1 uM by Kinomescan assay relative to control.

Assay [20] addresses Death-associated protein kinase 1 (Homo sapiens) (UniProt P53355). In words: Inhibition of wild-type human partial length DAPK1 (M1 to F296 residues) expressed in bacterial expression system assessed as residual activity at 1 uM by Kinomescan method relative to control.
Assay [21] concerns the target RAC-alpha serine/threonine-protein kinase (Homo sapiens) (UniProt P31749). In words: Inhibition of wild-type human partial length AKT1 expressed in bacterial expression system assessed as residual activity at 1 uM by Kinomescan method relative to control.
Assay [22] relates to BT-483. In words: Induction of autophagy in human BT-483 cells transfected with GFP-fused LC3 assessed as aggregation of GFP-LC3 punctures after 6 hrs by DAPI staining based assay. The assay is classed as functional, cell-based.
For assay [23], the system named is BT-483. Kind of assay: Cell cycle arrest in human BT-483 cells assessed as accumulation at sub-G1 phase at 5 to 10 uM after 24 to 72 hrs. The assay is classed as functional, cell-based.

Calls of active or inactive are those of the source. The calls are words filed in the database; no cut-off is given here.

Chain of Death-associated protein kinase 1 (Homo sapiens) (P53355 whole entry, looked up, the tested form may be a part): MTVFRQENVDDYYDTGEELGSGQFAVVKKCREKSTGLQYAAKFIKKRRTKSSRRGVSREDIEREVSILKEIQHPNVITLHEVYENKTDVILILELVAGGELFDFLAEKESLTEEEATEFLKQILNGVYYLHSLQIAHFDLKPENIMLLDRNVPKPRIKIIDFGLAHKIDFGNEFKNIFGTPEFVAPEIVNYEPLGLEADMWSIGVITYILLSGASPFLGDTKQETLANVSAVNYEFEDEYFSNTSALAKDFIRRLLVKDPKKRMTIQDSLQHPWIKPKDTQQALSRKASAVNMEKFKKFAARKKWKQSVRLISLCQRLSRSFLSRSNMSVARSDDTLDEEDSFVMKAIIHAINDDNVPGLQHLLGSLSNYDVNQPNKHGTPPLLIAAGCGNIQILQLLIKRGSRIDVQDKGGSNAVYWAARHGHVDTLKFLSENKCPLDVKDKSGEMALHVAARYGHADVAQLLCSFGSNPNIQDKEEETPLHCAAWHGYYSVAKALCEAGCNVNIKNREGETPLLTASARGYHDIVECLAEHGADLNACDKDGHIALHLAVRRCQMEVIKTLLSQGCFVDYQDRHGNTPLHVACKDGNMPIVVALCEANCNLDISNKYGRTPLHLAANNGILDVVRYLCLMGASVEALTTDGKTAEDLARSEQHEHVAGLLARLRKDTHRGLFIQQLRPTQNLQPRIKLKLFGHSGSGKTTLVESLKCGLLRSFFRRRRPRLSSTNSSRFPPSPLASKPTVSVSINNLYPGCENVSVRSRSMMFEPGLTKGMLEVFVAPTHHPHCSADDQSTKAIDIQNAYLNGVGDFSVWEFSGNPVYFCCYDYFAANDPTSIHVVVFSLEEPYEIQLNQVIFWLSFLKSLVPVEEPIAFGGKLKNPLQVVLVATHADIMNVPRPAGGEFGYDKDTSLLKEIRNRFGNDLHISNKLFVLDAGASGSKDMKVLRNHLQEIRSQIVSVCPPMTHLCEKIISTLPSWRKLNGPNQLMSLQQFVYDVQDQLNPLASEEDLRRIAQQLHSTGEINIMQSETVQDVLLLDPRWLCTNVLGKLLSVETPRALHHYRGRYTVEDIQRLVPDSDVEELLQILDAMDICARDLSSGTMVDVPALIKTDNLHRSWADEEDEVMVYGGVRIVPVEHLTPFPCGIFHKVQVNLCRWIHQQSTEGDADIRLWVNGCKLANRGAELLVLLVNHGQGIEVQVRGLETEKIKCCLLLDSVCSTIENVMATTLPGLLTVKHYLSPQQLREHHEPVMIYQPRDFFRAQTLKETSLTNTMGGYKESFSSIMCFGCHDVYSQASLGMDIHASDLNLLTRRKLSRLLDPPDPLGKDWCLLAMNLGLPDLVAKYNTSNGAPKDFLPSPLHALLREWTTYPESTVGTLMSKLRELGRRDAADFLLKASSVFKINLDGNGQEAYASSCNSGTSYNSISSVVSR

On to `CCNc1cc(-c2ccc(NC(=O)Nc3cccc(Cl)c3)cc2C(F)(F)F)ccn1`, for which the Activity is 67% in assay [1]; 60% in assay [3]; 70% in assay [5]; 60% in assay [6]; 78.2% in the assay with BT-483 [7]; 64% in assay [8]. The Activity stood at 7% in assay [10]; 94% in [11]; 98% in assay [12]; 83% in assay [13]; 75% in [14]; 76% in assay [15]. Further, the Activity in assay [16] amounted to 69%; in assay [18] it was 86%; in assay [19], 11%; in assay [20], 93%; in assay [21], 90%. For the same compound, the result with BT-483 [2], with BT-483 [17], with BT-483 [22] and with BT-483 [23] was Active. In addition, the outcome with BT-483 [4] and in the assay with BT-483 [9] was inactive.

Source of the values: ChEMBL document CHEMBL4251622, “Design, synthesis, and biological evaluation of polo-like kinase 1/eukaryotic elongation factor 2 kinase (PLK1/EEF2K) dual inhibitors for regulating breast cancer cells apoptosis and autophagy” (Eur J Med Chem, 2018).
